Patent US10051860B2, “Plant disease controlling composition and method for controlling plant disease” (SUMITOMO CHEMICAL COMPANY, LIMITED, priority 2010, dated 2018)

System: gray mold fungus (Botrytis cinerea)
Experiment: Cucumber leaf disk preventive test against gray mold fungus (Test Examples 1 and 2, Reference Examples)
Type: in vivo
Conditions: 15° C., four days
Procedure: To a SUS beaker are added 30 parts of the present compound (racemate), 5 parts of Soprophor FLK (polyoxyethylene tristyrylphenyl ether phosphate, produced by Rhodia Nicca Ltd.), 65 parts of ion-exchange water and 150 parts of glass beads (1.0 mm diameter). The mixture is subjected to grinding at a velocity of 1000 rpm with cooling to 10° C., and thereafter the glass beads are separated, so as to obtain a flowable formulation comprising the present compound (racemate).
True leaf of cucumber is punched out with cork borer to 13 mm in diameter to prepare a leaf disk. In 24 well microwell plate that is dispensed with 1 ml 0.8% water agar, the leaf disk is placed such that the upper side of the leaf is in an upward direction. Thereto is added 20 micro liter a testing solution prepared by mixing the flowable formulation of the present compound (racemate) prepared by the above procedure and a commercial liquid formulation of validamycin or a commercial wettable powders of polyoxins to a predetermined concentration to treat the leaf disk.
After confirming that the testing medical solution is dried, conidium of gray mold fungus (Botrytis cinerea) is suspended into potato dextrose broth (DIFCO) in a density of about 10^5 conidium/mL and is then subjected to a spray inoculation. After leaving to stand the leaf disk in a growth chamber set up at 15° C. for four days, an onset area on the leaf is measured and then calculated an onset area rate (hereinafter, referred to as an onset area rate of treated group).
The same operation is carried out with 20 micro liter water instead of 20 micro liter a testing medicine solution to calculate an onset area rate (hereinafter, referred to an onset area rate of non-treated group).
A preventive value is calculated from the above onset area rate of treated group and the onset area rate of non-treated group by the following equation: Preventive value (%)=100×(A−B)/A
A: an onset area rate of treated group
B: an onset area rate of non-treated group
The same operations as described in Test Example 1 are carried out with kasugamycin or streptomycin instead of validamycin or polyoxins, so as to calculate respective preventive values.
Also for comparison, the same operations as described in Test Example 1 are carried out with the exception that the testing medicine solution is substituted with a predetermined concentration of either a flowable formulation of the present amide compound or a commercial wettable powder of kasugamycin or streptomycin, so as to calculate respective preventive values.
For comparison, the same operations as described in Test Example 1 are carried out with the exception that the testing medicine solution is substituted with a predetermined concentration of a solution of a wettable powder of validamycin or polyoxins, so as to calculate a preventive value.

[1] = antibiotic compound alone 0.5 ppm
[2] = antibiotic compound alone 5.0 ppm

Compound	preventive value (%) [1] [%]	preventive value (%) [2] [%]
C[C@H]1O[C@H](O[C@H]2[C@H](O)[C@@H](O)[C@@H](O)[C@H](O)[C@@H]2O)[C@@H](N)C[C@@H]1NC(=N)C(=O)O [kasugamycin]	0	10
[H]/N=C(/N)N[C@H]1[C@H](O)[C@@H](O)[C@H](O[C@@H]2O[C@@H](C)[C@](O)(C=O)[C@H]2O[C@@H]2O[C@@H](CO)[C@H](O)[C@@H](O)[C@@H]2NC)[C@@H](N/C(N)=N\[H])[C@@H]1O [streptomycin]	0	10
OCC1=C[C@H](N[C@H]2C[C@H](CO)[C@@H](O[C@@H]3O[C@H](CO)[C@@H](O)[C@H](O)[C@H]3O)[C@H](O)[C@H]2O)[C@H](O)[C@@H](O)[C@@H]1O [validamycin]	5	10
polyoxins	11	15
